Measured values: PMC11061460, “Acyl pyrazole sulfonamides as new antidiabetic agents: synthesis, glucosidase inhibition studies, and molecular docking analysis” (Frontiers in Chemistry, 2024)
Where two headings read alike, the source gives them in different places.

How the values were obtained:
β-glucosidase = β-glucosidase inhibitory assay in 96-well plates (p-NPG, absorbance 405 nm); type: biochemical; conditions: concentration of 1 mM; end concentration of 100 µM in each well
Procedure: An already established method was employed to perform α- and β-glucosidase inhibitory assays in 96-well plates ([Kazmi et al., 2017]). In this assay, phosphate buffer (0.07 M pH 6.8) was used to prepare 2.5 U/mL of α-glucosidase, 2.0 U/mL of β-glucosidase, and substrate 4-nitrophenyl-β-D-glucopyranoside (p-NPG) (10 mM) solutions. In addition, 1 mM solution of each test compound was prepared in 10% DMSO to achieve an end concentration of 100 µM in each well. Initially, 10 µL of the respective enzyme was incubated with 10 µL of test compounds for 5 min at 37 °C. Subsequently, 10 µL of p-NPG was added in each well followed by an incubation period of 30 min at 37 °C before adding 80 µL of Na2CO3 (200 mM) as a stop solution to each well. The absorbance was measured at 405 nm, and the percentage inhibition for each of the test compounds was determined by the following equation.
Percentage inhibition = 100–[Slope of test compound/Slope of enzyme control] × 100.
Acarbose was used as a standard drug for evaluating the efficacy of test compounds against α- and β-glucosidase. The inhibitory concentration 50 (IC50) for each of the test compound was determined by GraphPad prism version 10.0.

α-glucosidase = α-glucosidase (Saccharomyces cerevisiae, UniProt P53341); assay: biochemical; type: biochemical
Chain of α-glucosidase (P53341 whole entry): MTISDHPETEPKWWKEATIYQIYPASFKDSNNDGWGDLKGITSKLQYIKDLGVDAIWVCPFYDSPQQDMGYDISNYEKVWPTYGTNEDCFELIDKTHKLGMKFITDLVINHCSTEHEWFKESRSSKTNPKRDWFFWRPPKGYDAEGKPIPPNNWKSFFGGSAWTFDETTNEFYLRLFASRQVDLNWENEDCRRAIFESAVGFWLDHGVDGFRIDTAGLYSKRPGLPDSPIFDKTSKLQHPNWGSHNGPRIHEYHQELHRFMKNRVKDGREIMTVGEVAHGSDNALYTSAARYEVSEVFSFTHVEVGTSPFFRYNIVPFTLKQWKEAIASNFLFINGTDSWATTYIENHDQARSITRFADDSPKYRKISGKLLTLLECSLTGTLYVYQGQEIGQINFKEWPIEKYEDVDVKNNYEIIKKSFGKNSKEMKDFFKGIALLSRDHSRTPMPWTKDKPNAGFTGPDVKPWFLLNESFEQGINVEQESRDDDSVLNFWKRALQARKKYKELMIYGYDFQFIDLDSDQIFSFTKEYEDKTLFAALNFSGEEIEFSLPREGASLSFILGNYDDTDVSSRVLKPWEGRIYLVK

[1] = read-out: α-glucosidase inhibition IC50 ± SEM

| Compound | β-glucosidase inhibition %age inhibition (β-glucosidase) [%] | IC50 (α-glucosidase) [µM] | reduction in activity on switching chlorine from para- to meta-position (α-glucosidase; relative to 5a) [%] | melting point [°C] | IC50 (α-glucosidase; [1]) [µM] | potency relative to acarbose (times/fold more potent) (α-glucosidase) |
| --- | --- | --- | --- | --- | --- | --- |
| C[C@H]1O[C@H](O[C@H]2[C@H](O)[C@@H](O)[C@@H](O[C@H]3[C@H](O)[C@@H](O)C(O)O[C@@H]3CO)O[C@@H]2CO)[C@H](O)[C@@H](O)[C@@H]1N[C@H]1C=C(CO)[C@@H](O)[C@H](O)[C@H]1O (stereo partly shown) [Acarbose, reference compound] | 63.7 |  |  |  |  |  |
| Cc1nn(C(=O)c2ccc(Cl)cc2)c(C)c1/N=N/c1ccc(S(N)(=O)=O)cc1 [Compound 5a, (E)-4-((1-(4-Chlorobenzoyl)-3,5-dimethyl-1H-pyrazol-4-yl)diazenyl)benzenesulfonamide] | 34.3 | 1.13 ± 0.06 |  |  |  |  |
| Cc1nn(C(=O)c2cccc(Cl)c2)c(C)c1/N=N/c1ccc(S(N)(=O)=O)cc1 [Compound 5b, (E)-4-((1-(3-Chlorobenzoyl)-3,5-dimethyl-1H-pyrazol-4-yl)diazenyl)benzenesulfonamide] | 32.1 | 2.22 ± 0.11 | 50 |  |  |  |
| COc1ccc(C(=O)n2nc(C)c(/N=N/c3ccc(S(N)(=O)=O)cc3)c2C)cc1 [Compound 5c, (E)-4-((1-(4-Methoxybenzoyl)-3,5-dimethyl-1H-pyrazol-4-yl)diazenyl)benzenesulfonamide] | 12.9 |  |  | 202 to 205 | 3.29 ± 0.09 |  |
| COc1ccc(C(=O)n2nc(C)c(/N=N/c3ccc(S(N)(=O)=O)cc3)c2C)cc1OC [Compound 5d, (E)-4-((1-(3,4-Dimethoxybenzoyl)-3,5-dimethyl-1H-pyrazol-4-yl)diazenyl)benzenesulfonamide] | 18.5 | 4.53 ± 0.12 |  | 226 to 228 |  |  |
| Cc1nn(C(=O)c2ccc([N+](=O)[O-])cc2)c(C)c1/N=N/c1ccc(S(N)(=O)=O)cc1 [Compound 5e, (E)-4-((3,5-Dimethyl-1-(4-nitrobenzoyl)-1H-pyrazol-4-yl)diazenyl)benzenesulfonamide] | 11.7 |  |  | 231 to 233 | 4.11 ± 0.19 | eight |
| Cc1nn(C(=O)c2cccc([N+](=O)[O-])c2)c(C)c1/N=N/c1ccc(S(N)(=O)=O)cc1 [Compound 5f, (E)-4-((3,5-Dimethyl-1-(3-nitrobenzoyl)-1H-pyrazol-4-yl)diazenyl)benzenesulfonamide] | 27.4 |  |  |  | 2.77 ± 0.24 |  |
| Cc1ccccc1C(=O)n1nc(C)c(/N=N/c2ccc(S(N)(=O)=O)cc2)c1C [Compound 5g, (E)-4-((3,5-Dimethyl-1-(2-methylbenzoyl)-1H-pyrazol-4-yl)diazenyl)benzenesulfonamide] | 21.0 | 3.47 ± 0.43 |  |  |  |  |
| Cc1ccc(C(=O)n2nc(C)c(/N=N/c3ccc(S(N)(=O)=O)cc3)c2C)cc1 [Compound 5h, (E)-4-((3,5-Dimethyl-1-(4-methylbenzoyl)-1H-pyrazol-4-yl)diazenyl)benzenesulfonamide] | 14.6 |  |  | 218 to 220 | 9.22 ± 0.45 |  |
| Cc1nn(C(=O)c2ccc(Br)cc2)c(C)c1/N=N/c1ccc(S(N)(=O)=O)cc1 [Compound 5i, (E)-4-((1-(4-Bromobenzoyl)-3,5-dimethyl-1H-pyrazol-4-yl)diazenyl)benzenesulfonamide] | 11.2 | 19.1 ± 1.07 |  | 235 to 237 |  |  |
| COc1cccc(C(=O)n2nc(C)c(/N=N/c3ccc(S(N)(=O)=O)cc3)c2C)c1 [Compound 5j, (E)-4-((1-(3-Methoxybenzoyl)-3,5-dimethyl-1H-pyrazol-4-yl)diazenyl)benzenesulfonamide] | 7.55 | 17.9 ± 1.16 |  |  |  |  |
| Cc1n[nH]c(C)c1/N=N/c1ccc(S(N)(=O)=O)cc1 [Compound 5k, (E)-4-((3,5-Dimethyl-1H-pyrazol-4-yl)diazenyl)benzenesulfonamide] | 25.1 | 28.3 ± 1.45 |  | 188 to 190 |  |  |
